Patent US12286398B2, “Anti-bacterial stilbene derivatives and methods of use” (YALE UNIVERSITY, priority 2019, dated 2025)
In brackets after ≈: the same amount, converted by molar mass. Like-named read-outs stand apart in the source and are kept apart here.

What was measured:
MRSA [1] = details: after 30 days, identical conditions
From the text: Fold change in MIC for one culture grown in the presence of sub-inhibitory levels of ciprofloxacin for 30 days is shown as a positive control.
An attempt to culture MRSA mutants resistant to compounds of Formula I was made by subculturing two independent cultures of bacteria continuously in the presence of non-lethal concentrations of 5.

MRSA [2] = test: Lipid II supplementation rescue of MRSA growth; assay type: cell-based, Staphylococcus aureus; details: lethal concentrations of antibiotic, with lipid II in the media
From the text: (§1) FIGS. 21A-21D show (FIG. 21A) SYTOX Green fluorescence assay for antibiotic-induced bacterial membrane permeability. Vancomycin was used as a negative control, and daptomycin was used as a positive control. Error bars represent the standard error of the mean across 3 biological replicates. […] Vancomycin was used as a positive control. The UDP-MurNAc-pentapeptide was identified by mass spectrometry, with an [M+H]^+ of 1150.3590. Error bars represent the standard deviation of three biological replicates. […] Lipid II cannot rescue bacteria grown in the presence of ciprofloxacin (an inhibitor of DNA replication). Data from three biological replicates are shown. […] Vancomycin was used as a positive control. Lipid II was boiled to remove the lipid tail, and de-lipidated lipid II was quantified by mass spectrometry, with an [M+H]^+ of 1331.5362. Error bars represent the standard deviation of three biological replicates.
Lipid II is a crucial peptidoglycan building block downstream of UDP-MurNAc-pentapeptide and is the target of several antibiotics, including vancomycin. Bacteria were grown in the presence of lethal concentrations of antibiotics with and without supplementation of lipid II into the media. […] These lipids are the targets of numerous antibiotics. Compounds that bind to lipid II are known to result in its accumulation in cells, while compounds that bind to C55-P or C55-PP result in a reduction in lipid II levels. […] The lipid tail of lipid II can be removed by boiling in acidic conditions, allowing quantification by LC-MS. Following this protocol, an accumulation of a mass matching de-lipidated lipid II when bacteria were treated with either compounds of Formula I or vancomycin (FIG. 21D) was observed. The identity of this molecule was confirmed by tandem mass spectrometry and compared to published fragmentation data. Without being bound by theory, it is believed that compounds of Formula I target the bacterial cell wall by binding to lipid II and preventing its polymerization and cross-linking into peptidoglycan.

[3] = test system: vancomycin-resistant Enterococcus faecalis (VRE); test: Growth inhibition assay, minimum inhibitory concentration against VRE; assay type: cell-based
Experimental: (§2) Growth Inhibition Assays. Compounds were prepared in DMSO to a concentration of 10 mM. DMSO was used as a vehicle negative control, and vancomycin (MRSA) and ampicillin (VRE) were also prepared as positive controls for minimum inhibitory concentration (MIC) tests. Compounds were tested for antimicrobial activity against MRSA and VRE at 100, 50, 25, 12.5, 6.25, 3.13, 1.56, 0.78, and 0.39 μM. MRSA was grown in tryptic soy broth and VRE was grown in brain heart infusion medium. Overnight cultures of bacteria were diluted to OD600=0.1 and 50 μL of cell culture broth was added to each well. Media (50 μL) containing compound at the appropriate concentration was then added to the cell cultures and the plates were sealed and incubated at 37° C. overnight. Plates were then read for OD600 using a PerkinElmer Envision 2100 multimode plate reader (PerkinElmer, Waltham, MA, USA). […] All samples were tested in triplicate.
(§3) Determination of Minimum Inhibitory Concentration. All compounds were freshly dissolved in DMSO at a stock solution of 10 mM. DMSO (solvent vehicle) was used as a negative control and vancomycin and ampicillin were used as positive controls for MRSA and VRE, respectively. Compounds were dispensed into 96-well plates at 100, 50, 25, 12.5, 6.25, 3.13, 1.56, 0.78, and 0.39 μM. Overnight cultures of MRSA grown in tryptic soy broth and VRE grown in brain heart infusion medium were diluted to OD600 of 0.1, and 50 μL of fresh cell culture broth was added to each well. The plates were sealed and incubated at 37° C. overnight. Plates were then monitored for OD600 using a PerkinElmer Envision 2100 multimode plate reader (PerkinElmer, Waltham, MA, USA).

[4] = test system: methicillin-resistant Staphylococcus aureus (MRSA); test: Growth inhibition assay, minimum inhibitory concentration against MRSA; assay type: cell-based; details: for MIC: Staphylococcus aureus
Experimental: as §2, §3

lipid II in MRSA = test: Accumulation of lipid II in MRSA, LC-MS of de-lipidated lipid II; assay type: cell-based, Staphylococcus aureus; details: compared to DMSO
From the text: as §1
Lipid II is a crucial peptidoglycan building block downstream of UDP-MurNAc-pentapeptide and is the target of several antibiotics, including vancomycin. Bacteria were grown in the presence of lethal concentrations of antibiotics with and without supplementation of lipid II into the media. […] These lipids are the targets of numerous antibiotics. […] The lipid tail of lipid II can be removed by boiling in acidic conditions, allowing quantification by LC-MS. […]

[5] = test system: UDP-MurNAc-pentapeptide in MRSA; test: Accumulation of cell wall precursor UDP-MurNAc-pentapeptide in MRSA; assay type: cell-based, Staphylococcus aureus; details: compared to DMSO
From the text: (§4) FIGS. 21A-21D show (FIG. 21A) SYTOX Green fluorescence assay for antibiotic-induced bacterial membrane permeability. Vancomycin was used as a negative control, and daptomycin was used as a positive control. Error bars represent the standard error of the mean across 3 biological replicates. […] Vancomycin was used as a positive control. […] Error bars represent the standard deviation of three biological replicates. […] Data from three biological replicates are shown. […] Vancomycin was used as a positive control. […] Error bars represent the standard deviation of three biological replicates.
(§5) The effects of compounds of Formula I on the bacterial cell wall were thus investigated. […] The effects of compounds of Formula I on cell wall biosynthesis was investigated by looking for accumulation of the cell wall precursor molecule UDP-MurNAc-pentapeptide (FIG. 21B).

MRSA [6] = test: SYTOX Green fluorescence assay for bacterial membrane permeability; assay type: cell-based, Staphylococcus aureus
From the text: as §4, §5

[7] = Enterococcus faecalis, Table 6, read-out: Minimal inhibitory concentrations, E. faecalis (vancomycin resistant)
[8] = Table 6, read-out: Minimal inhibitory concentrations, S. aureus (methicillin resistant)

Compound	MIC [3, 7] [µM]	MIC [4, 8] [µM]	antibiotic activity against VRE (in words) [3]	antibiotic activity against MRSA (in words) [4]	also measured
O=C(O)c1cn(C2CC2)c2cc(N3CCNCC3)c(F)cc2c1=O [ciprofloxacin]	–	–	–	–	increase in MIC (MRSA [1]): approximately 37 fold; restoration of MRSA growth by lipid II supplementation (MRSA [2]): not able to rescue bacterial growth
CC(C)c1c(O)cc(/C=C/c2ccccc2)cc1O [compound 1, tapinarof, reference compound]	51 (≈ 13 µg/mL)	27 (≈ 6.87 µg/mL)	–	–	MIC ([3]; read-out: MIC): 50.5 µM (≈ 12.8 µg/mL); MIC ([4]; read-out: MIC): 27 µM (≈ 6.87 µg/mL)
CC(C)c1c(O)cc(C2OC2c2ccccc2)cc1O (stereo not drawn) [compound 2, stilbene epoxide, reference compound]	–	–	little to no activity	little to no activity	–
CC(C)C1=C(O)C(=O)C(/C=C/c2ccccc2)=C(c2c(/C=C/c3ccccc3)cc(O)c(C(C)C)c2O)C1=O [compound 5, duotap-520]	–	–	–	–	accumulation of lipid II (de-lipidated lipid II) (lipid II in MRSA): Accumulation; level of UDP-MurNAc-pentapeptide [5]: Accumulation; restoration of MRSA growth by lipid II supplementation (MRSA [2]): restore growth
Oc1cc(O)cc(/C=C/c2ccccc2)c1 [compound 6, pinosylvin, reference compound]	> 100	> 100	–	–	–
Oc1ccc(C=Cc2cc(O)cc(O)c2)cc1 [compound 7, resveratrol, reference compound]	14 (≈ 3.2 µg/mL)	25 (≈ 5.71 µg/mL)	–	–	–
O=C1C=C(O)C(=O)C(/C=C/c2ccccc2)=C1c1c(O)cc(O)cc1/C=C/c1ccccc1 [compound 8, duotap-436]	6 (≈ 2.62 µg/mL)	4 (≈ 1.75 µg/mL)	significantly enhanced antibiotic activity compared to 6	significantly enhanced antibiotic activity compared to 6	activity against VRE [3]: 6 µg/mL
O=C1C=C(O)C(=O)C(/C=C/c2ccc(O)cc2)=C1c1c(O)cc(O)cc1/C=C/c1ccc(O)cc1 [compound 9, duotap-468]	> 100	> 100	no enhancement of activity	no enhancement of activity	–
CCCCCCCCCC(=O)N[C@@H](Cc1c[nH]c2ccccc12)C(=O)N[C@H](CC(N)=O)C(=O)N[C@@H](CC(=O)O)C(=O)N[C@@H]1C(=O)NCC(=O)N[C@@H](CCCN)C(=O)N[C@@H](CC(=O)O)C(=O)N[C@H](C)C(=O)N[C@@H](CC(=O)O)C(=O)NCC(=O)N[C@H](CO)C(=O)N[C@@H]([C@H](C)CC(=O)O)C(=O)N[C@@H](CC(=O)c2ccccc2N)C(=O)O[C@@H]1C [daptomycin]	–	–	–	–	membrane permeability (MRSA [6]): increase in membrane permeability
CN[C@H](CC(C)C)C(=O)N[C@H]1C(=O)N[C@@H](CC(N)=O)C(=O)N[C@H]2C(=O)N[C@H]3C(=O)N[C@H](C(=O)N[C@H](C(=O)O)c4cc(O)cc(O)c4-c4cc3ccc4O)[C@H](O)c3ccc(c(Cl)c3)Oc3cc2cc(c3O[C@@H]2O[C@H](CO)[C@@H](O)[C@H](O)[C@H]2O[C@H]2C[C@](C)(N)[C@H](O)[C@H](C)O2)Oc2ccc(cc2Cl)[C@H]1O [vancomycin, reference compound]	–	–	–	–	accumulation of lipid II (de-lipidated lipid II) (lipid II in MRSA): accumulation; level of UDP-MurNAc-pentapeptide [5]: significant increase; restoration of MRSA growth by lipid II supplementation (MRSA [2]): restored MRSA growth to antibiotic-free levels
lumiquinone A [compound 3, reference compound]	–	–	little to no activity	little to no activity	–
